Data published in PMC9375929, “Functional and structural characteristics of HLA-B*13:01-mediated specific T cells reaction in dapsone-induced drug hypersensitivity” (Journal of Biomedical Science, 2022).

Molecular target: T1, HLA-B*13:01 (with beta-2-microglobulin) (Homo sapiens, UniProt A0A583ZBB4)
T1 construct: for SPR incubated with beta-2-microglobulin (Chemicon) and amine-coupled; no peptide ligand mentioned for SPR; with Beta-2-microglobulin
Experiment: surface plasmon resonance (Biacore T200), protein immobilised by amine coupling
Format: binding

- Kd: 68.5 µM
Compound: Nc1ccc(S(=O)(=O)c2ccc(N)cc2)cc1 [DDS]
